Measured values taken from US11071731B2, “Allosteric modulators of the mu opioid receptor” (Chiromics, LLC, priority 2017, dated 2021).

Columns and labels:
mu opioid receptor (MOR) [1] = target: T1, mu opioid receptor (MOR) (Homo sapiens, UniProt P35372); assay: PathHunter β-arrestin recruitment assay, PAM mode with EC20 endomorphin-1; type: cell-based; conditions: for EC50: read-out: β-arr. EC50
Method in brief: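 Enzyme fragment complementation read-out: β-gal ED fragment fused to receptor, EA fused to β-arrestin, recruitment restoring β-gal activity detected by chemiluminescence. EC50 and percent maximal response derived for each compound.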

mu opioid receptor (MOR) [2] = target: T1, mu opioid receptor (MOR); assay: Hit Hunter cAMP signaling assay (adenylyl cyclase inhibition), PAM mode with EC20 endomorphin-1; type: cell-based
[3] = maximal response for β-arrestin recruitment
[4] = cAMP EC50, adenylyl cyclase inhibition
[5] = maximal response for adenylyl cyclase inhibition
[6] = adenylyl cyclase inhibition, read-out: cAMP EC50
[7] = maximal response, β-arrestin recruitment
[8] = maximal response, adenylyl cyclase inhibition

T1 sequence (P35372 whole entry, the tested form may be a part): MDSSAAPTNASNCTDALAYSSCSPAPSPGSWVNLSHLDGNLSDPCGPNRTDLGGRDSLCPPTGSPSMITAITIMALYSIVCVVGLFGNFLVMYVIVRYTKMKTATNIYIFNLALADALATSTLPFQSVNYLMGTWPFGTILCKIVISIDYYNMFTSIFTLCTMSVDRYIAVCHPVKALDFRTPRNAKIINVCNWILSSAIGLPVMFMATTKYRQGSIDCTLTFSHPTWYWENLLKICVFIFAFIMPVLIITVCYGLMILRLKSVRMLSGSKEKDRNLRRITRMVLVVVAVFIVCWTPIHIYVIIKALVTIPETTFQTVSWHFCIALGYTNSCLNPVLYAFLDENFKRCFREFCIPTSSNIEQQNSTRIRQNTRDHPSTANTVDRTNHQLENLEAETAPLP

| Compound | β-arr Max. Resp. (mu opioid receptor (MOR) [1]; [3]) | EC50 (mu opioid receptor (MOR) [1]; β-arrestin recruitment) [µM] | EC50 (mu opioid receptor (MOR) [2]; [4]) [µM] | cAMP Max. Resp. (mu opioid receptor (MOR) [2]; [5]) | EC50 (mu opioid receptor (MOR) [2]; [6]) [µM] | β-arr Max. Resp. (mu opioid receptor (MOR) [1]; [7]) | cAMP Max. Resp. (mu opioid receptor (MOR) [2]; [8]) |
| --- | --- | --- | --- | --- | --- | --- | --- |
| Fc1cnc(Cl)nc1N1CCCCC1c1cccc(C(F)(F)F)c1 (stereo not shown) [compound 7] | F (F represents a maximal response of > 60%) | < 0.7 | < 0.7 | F (F represents a maximal response of > 60%) |  |  |  |
| Fc1cnc(Cl)nc1N1CCCCC1c1ccc(Cl)c(C(F)(F)F)c1 (single isomer, unassigned) [compound 345] | D (D represents a maximal response of < 40%) | < 0.7 | < 0.7 | D (D represents a maximal response of < 40%) |  |  |  |
| Fc1ccc(C2C(F)CCCN2c2nc(Cl)ncc2F)cc1Br (stereo not shown) [compound 210] | F (F represents a maximal response of > 60%) | > 2.1 | 0.7 to 2.1 | E (E represents a maximal response of 40-60%) |  |  |  |
| Fc1ccc(C2CCCCN2c2nc(Cl)ncc2F)cc1C(F)F (stereo not shown) [compound 299] | F (F represents a maximal response of > 60%) | 0.7 to 2.1 | < 0.7 | F (F represents a maximal response of > 60%) |  |  |  |
| O=S(=O)(c1ccc(Cl)cc1)N1CCCCC1c1ccc(F)c(Br)c1 (single isomer, unassigned) [compound 56] | F (F represents a maximal response of > 60%) | > 2.1 |  | E (E represents a maximal response of 40-60%) | 0.7 to 2.1 |  |  |
| COc1cccc(CN2CCCCC2c2cccc(C(F)(F)F)n2)c1 (stereo not shown) [compound 156] | F (F represents a maximal response of > 60%) | > 2.1 | > 2.1 | E (E represents a maximal response of 40-60%) |  |  |  |
| Fc1cnc(Cl)nc1N1CCCCC1c1ccc2ncccc2c1 (stereo not shown) [compound 326] | D (D represents a maximal response of < 40%) | < 0.7 | < 0.7 | D (D represents a maximal response of < 40%) |  |  |  |
| CCC1CCCN(c2nc(Cl)ncc2F)C1c1ccc(OC)c(Br)c1 (stereo not shown) [compound 248] | F (F represents a maximal response of > 60%) | > 2.1 |  | E (E represents a maximal response of 40-60%) | > 2.1 |  |  |
| COc1ccc(C2CCCCN2c2nc(Cl)c(C#N)cc2F)cc1Br (stereo not shown) [compound 449] |  | > 2.1 | > 2.1 |  |  | F (F represents a maximal response of > 60%) | D (D represents a maximal response of < 40%) |
| Fc1cnc(Cl)nc1N1CCCCC1c1ccc(Cl)c(Cl)c1 (stereo not shown) [compound 331] | D (D represents a maximal response of < 40%) | < 0.7 | < 0.7 | D (D represents a maximal response of < 40%) |  |  |  |
| Fc1ccc(C2CCCCN2c2nc(Cl)ncc2F)cc1Cl (single isomer, unassigned) [compound 10] | F (F represents a maximal response of > 60%) | < 0.7 | < 0.7 | E (E represents a maximal response of 40-60%) |  |  |  |
| O=S(=O)(c1ccc(Cl)cc1)N1CCCCC1c1ccnc(F)c1 (racemic) [compound 59] | F (F represents a maximal response of > 60%) | > 2.1 |  | F (F represents a maximal response of > 60%) | > 2.1 |  |  |
| COc1ncc(F)c(N2CCCCC2c2ccc(F)c(Cl)c2)n1 (stereo not shown) [compound 461] |  | > 2.1 | > 2.1 |  |  | F (F represents a maximal response of > 60%) | E (E represents a maximal response of 40-60%) |
| Oc1ncc(F)c(N2CCCCC2c2cccc(C(F)(F)F)c2)n1 (stereo not shown) [compound 350] | D (D represents a maximal response of < 40%) | < 0.7 |  | D (D represents a maximal response of < 40%) |  |  |  |
| Fc1cc(C2COCCN2c2nc(Cl)ncc2F)cc(C(F)(F)F)c1 (single isomer, unassigned) [Compound 344] | D (D represents a maximal response of < 40%) | < 0.7 |  | D (D represents a maximal response of < 40%) | < 0.7 |  |  |
| FC(F)(F)c1cccc(C2CCCCN2Cc2cccc(Cl)n2)n1 (stereo not shown) [compound 165] | F (F represents a maximal response of > 60%) | > 2.1 | 0.7 to 2.1 | F (F represents a maximal response of > 60%) |  |  |  |
| [O-][S+]1CCN(c2nc(Cl)ncc2F)C(c2cc(F)cc(C(F)(F)F)c2)C1 (mixture of isomers) [Compound 302] | E (E represents a maximal response of 40-60%) | > 2.1 |  | D (D represents a maximal response of < 40%) | > 2.1 |  |  |
